Results taken from patent US7432283B2, “Heterocyclic GABAA subtype selective receptor modulators” (Roche Palo Alto LLC, priority 2004, dated 2008).
Structures can show the parent of a compound that is named as a salt.

Row | SMILES | melting point [°C]
1 | COc1ccc(N2CCCc3c2nn(C)c3Br)c(C)c1 [Compound 1-7, 3-Bromo-2-methyl-7-(4-methoxy 2-methyl-phenyl)-4,5,6,7-tetrahydro-2H-pyrazolo[3,4-b]pyridine] | 101.7 to 104.1
2 | COCC(O)(COC)c1c2c(nn1C)N(c1c(C)cc(C)cc1C)CCC2 [Compound 2-6, 1,3-Dimethoxy-2-[2-methyl-7-(2,4,6-trimethylphenyl)-4,5,6,7-tetrahydro-2H-pyrazolo[3,4-b]pyridin-3-yl]propan-2-ol] | 120.3 to 121.8
3 | Cc1cc(C)c(N2CCCc3c2nn(C)c3Br)c(Cl)c1 [Compound 1-1, 3-Bromo-7-(2-chloro-4,6-dimethylphenyl)-2-methyl-4,5,6,7-tetrahydro-2H-pyrazolo[3,4-b]pyridine] | 106 to 107
4 | Cc1cc(C)c(N2CCCc3c2nn(C)c3C2(O)CCOCC2)c(C)c1 [Compound 2-12, 4-[2-Methyl-7-(2,4,6-trimethylphenyl)-4,5,6,7-tetrahydro-2H-pyrazolo[3,4-b]pyridin-3-yl]tetrahydropyran-4-ol] | 193 to 195.1
5 | Cn1nc2c(c1Br)CCCN2c1ccc(Cl)cc1 [Compound 1-8, 3-Bromo-2-methyl-7-(4-chloro-phenyl)-4,5,6,7-tetrahydro-2H-pyrazolo[3,4-b]pyridine] | 113.8 to 114.9
6 | COCCC(O)(COC)c1c2c(nn1C)N(c1c(C)cc(C)cc1C)CCC2 (stereo not shown) [Compound 2-7, 1,4-Dimethoxy-2-[2-methyl-7-(2,4,6-trimethylphenyl)-4,5,6,7-tetrahydro-2H-pyrazolo[3,4-b]pyridin-3-yl]butan-2-ol] | 107.9 to 110.9
7 | Cn1nc2c(c1Br)CCCN2c1c(Cl)cc(Cl)cc1Cl [Compound 1-6, 3-Bromo-2-methyl-7-(2,4,6-trichloro-phenyl)-4,5,6,7-tetrahydro-2H-pyrazolo[3,4-b]pyridine] | 100 to 101
8 | CCCC(O)(c1cccs1)c1c2c(nn1C)N(c1c(C)cc(C)cc1C)CCC2 (stereo not shown) [Compound 2-3, 1-[2-Methyl-7-(2,4,6-trimethylphenyl)-4,5,6,7-tetrahydro-2H-pyrazolo[3,4-b]pyridin-3-yl]-1-thiophen-2-ylbutan-1-ol] | 175.9 to 178.4
9 | Cc1cc(C)c(N2CCCc3c2nn(C)c3C#N)c(C)c1 [Compound 2-22, 2-Methyl-7-(2,4,6-trimethyl-phenyl)-4,5,6,7-tetrahydro-2H-pyrazolo[3,4-b] pyridine-3-carbonitrile] | 128.5 to 136.6
10 | Cc1cc(C)c(N2CCCc3cn(C)nc32)c(Cl)c1 [Compound 2-13, 7-(2-Chloro-4,6-dimethylphenyl)-2-methyl-4,5,6,7-tetrahydro-2H-pyrazolo[3,4-b]pyridine] | 97 to 98
11 | CCC(O)c1c2c(nn1C)N(c1c(C)cc(C)cc1C)CCC2 (stereo not shown) [Compound 2-10, 1-[2-Methyl-7-(2,4,6-trimethylphenyl)-4,5,6,7-tetrahydro-2H-pyrazolo[3,4-b]pyridin-3-yl]propan-1-ol] | 179.4 to 180.9

Second part, the molecule after the results:

Row | melting point [°C] | SMILES
12 | 228.6 to 233.9 | Cc1cc(C)c(N2CCCc3c2nn(C)c3C(=O)O)c(C)c1 [Compound 5-2, 7-(2,4,6-Trimethylphenyl)-2-methyl-4,5,6,7-tetrahydro-2H-pyrazolo[3,4-b]pyridine-3-carboxylic acid]
13 | 133.8 to 135 | COCC(=O)Nc1c2c(nn1C)N(c1c(C)cc(C)cc1C)CCC2 [Compound 7-4, 2-Methoxy-N-[2-methyl-7-(2,4,6-trimethyl-phenyl)-4,5,6,7-tetrahydro-2H-pyrazolo[3,4-b]pyridin-3-yl]acetamide]
14 | 99.6 to 100.6 | C=Cc1c2c(nn1C)N(c1ccc(Cl)cc1Cl)CCC2 [Compound 3-7, 7-(2,4-Dichloro-phenyl)-2-methyl-3-vinyl-4,5,6,7-tetrahydro-2H-pyrazolo[3,4-b]pyridine]
15 | 91.5 to 92 | CCCC(CCC)c1c2c(nn1C)N(c1c(C)cc(C)cc1C)CCC2 [Compound 4-2, 2-Methyl-3-(1-propylbutyl)-7-(2,4,6-trimethylphenyl)-4,5,6,7-tetrahydro-2H-pyrazolo[3,4-b]pyridine]
16 | 169.9 to 172.8 | COc1cccc(OC)c1-c1c2c(nn1C)N(c1c(C)cc(C)cc1C)CCC2 [Compound 9-6, 3-(2,6-Dimethoxy-phenyl)-2-methyl-7-(2,4,6-trimethyl-phenyl)-4,5,6,7-tetrahydro-2H-pyrazolo[3,5-b]pyridine]
17 | 100.1 to 104.4 | CCCC(COC)Nc1c2c(nn1C)N(c1c(C)cc(C)cc1C)CCC2 (stereo not shown) [Compound 5-41, (1-Methoxymethylbutyl)-[2-methyl-7-(2,4,6-trimethylphenyl)-4,5,6,7-tetrahydro-2H-pyrazolo[3,4-b]pyridin-3-yl]-amine]
18 | 64.4 to 67.6 | C=Cc1c2c(nn1C)N(c1c(C)cc(C)cc1C)CCC2 [Compound 3-8, 2-methyl-7-(2,4,6-trimethyl-phenyl)-3-vinyl-4,5,6,7-tetrahydro-2H-pyrazolo[3,4-b]pyridine]
19 | 176.9 to 178.9 | Cn1nc2c(c1N)CCCN2c1ccc(Cl)cc1Cl [Compound 5-43, 7-(2,4-Dichloro-phenyl)-2-methyl-4,5,6,7-tetrahydro-2H-pyrazolo[3,4-b]pyridin-3-ylamine]
20 | 80.3 to 87.7 | Cc1cc(C)c(N2CCCc3c2nn(C)c3C(=O)N2CCc3ccccc3C2)c(C)c1 [Compound 7-2, (3,4-Dihydro-1H-isoquinolin-2-yl)-[2-methyl-7-(2,4,6-trimethyl-phenyl)-4,5,6,7-tetrahydro-2H-pyrazolo[3,4-b]pyridin-3-yl]-methanone]
21 | 171.4 to 175.7 | Cc1cc(C)c(N2CCCc3c2nn(C)c3NC(=O)OC(C)(C)C)c(Cl)c1 [Compound 5-3, [7-(2-Chloro-4,6-dimethylphenyl)-2-methyl-4,5,6,7-tetrahydro-2H-pyrazolo[3,4-b]pyridin-3-yl]carbamic acid tert-butyl ester]
22 | 204 to 207.8 | CCOC(=O)Nc1c2c(nn1C)N(c1c(C)cc(C)cc1Cl)CCC2 [Compound 5-4, [7-(2-Chloro-4,6-dimethylphenyl)-2-methyl-4,5,6,7-tetrahydro-2H-pyrazolo[3,4-b]pyridin-3-yl]carbamic acid ethyl ester]
23 | 142.1 to 149.2 | Cn1nc2c(c1C(=O)c1ccccn1)CCCN2c1ccc(Cl)cc1Cl [Compound 6-1, [7-(2,4-Dichloro-phenyl)-2-methyl-4,5,6,7-tetrahydro-2H-pyrazolo[3,4-b]pyridin-2-yl]-methanone]
24 | 101.6 to 102.6 | CC/C=C(\CCC)c1c2c(nn1C)N(c1c(C)cc(C)cc1C)CCC2 [Compound 3-2, 2-Methyl-3-(1-propylbut-1-enyl)-7-(2,4,6-trimethylphenyl)-4,5,6,7-tetrahydro-2H-pyrazolo[3,4-b]pyridine]
25 | 236.4 to 241 | Cc1cc(C)c(N2CCCc3c2nn(C)c3CN2CCc3ccccc3C2)c(C)c1 (as salt: hydrochloride) [Compound 7-5, 2-[2-Methyl-7-(2,4,6-trimethyl-phenyl)-4,5,6,7-tetrahydro-2H-pyrazolo[3,4-b]pyridin-3-ylmethyl]-1,2,3,4-tetetrahydroisoquinolinedihydrochloride]
